From patent US8722890B2 (AbbVie Inc., priority 2008, dated 2014)
Where two headings read alike, the source gives them in different places.

Experiments:
cKIT = cKIT (Homo sapiens (Human), UniProt P10721); assay: HTRF in vitro kinase assay, cKIT; format: biochemical; settings: PDGFR family; 1 mM ATP
Protocol: (§1) To determine the activity of the various kinases, a homogenous time-resolved fluorescence (HTRF) in vitro kinase assay was used.
(§2) For example for KDR, cKIT, FLT1, CSF1R and FTL3, purified enzyme was mixed with 0.5 μM N-biotinylated substrate (Biotin-Ahx-[…]-amide (SEQ. ID. 1)), various concentrations of inhibitor in reaction buffer (50 mM HEPES, pH 7.1, 10 mM MgCl2, 2 mM MnCl2, 0.1% BSA and 1 mM DTT, 40 μL final volume), ATP (1 mM final conc.) in a black 384-well plate. […] The quenched reaction was allowed to stand at room temperature for 3 hours and was then read in a time-resolved fluorescence detector (InVision, Perkin-Elmer) at 620 nm and 665 nm sequentially with excitation.

Aurora B = Aurora B (Homo sapiens (Human), UniProt Q96GD4); assay: Aurora B activity assay (time-resolved fluorescence); format: biochemical; settings: Table 3; 1 mM ATP
Chain of Aurora B (Q96GD4 whole entry): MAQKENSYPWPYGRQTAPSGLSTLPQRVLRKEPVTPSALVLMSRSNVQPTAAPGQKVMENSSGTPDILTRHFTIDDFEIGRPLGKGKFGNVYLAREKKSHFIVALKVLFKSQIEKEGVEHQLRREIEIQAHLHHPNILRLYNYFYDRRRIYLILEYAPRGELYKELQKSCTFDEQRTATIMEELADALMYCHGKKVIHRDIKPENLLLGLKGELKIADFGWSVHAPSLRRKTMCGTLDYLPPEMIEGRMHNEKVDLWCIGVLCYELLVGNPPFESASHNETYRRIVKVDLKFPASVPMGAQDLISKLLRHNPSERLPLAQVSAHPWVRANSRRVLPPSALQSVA
Chain of Aurora B (Q9NQS7 826-918 partner): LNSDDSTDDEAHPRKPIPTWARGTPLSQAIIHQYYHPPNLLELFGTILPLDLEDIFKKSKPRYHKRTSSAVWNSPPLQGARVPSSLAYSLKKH
Protocol: After 1 hour, the reaction was stopped with EDTA and anti-phospho-histone H3 Europium Cryptate (Cis-Bio) and SA-APC (Phycolink, Prozyme) were added to detect the phosphopeptide. The amount of phosphorylation was determined by the time-resolved fluorescence ratio of signals at 665 nm and 615 nm. The IC50's were calculated by an exponential fit of the inhibition values with the inhibitor concentrations using Assay Explorer software.

Aurora C = Aurora C (Homo sapiens (Human), UniProt Q9UQB9); assay: Aurora C activity assay (time-resolved fluorescence); format: biochemical; settings: Table 5; read-out: Aurora C HTRF IC50
Chain of Aurora C (Q9UQB9 whole entry): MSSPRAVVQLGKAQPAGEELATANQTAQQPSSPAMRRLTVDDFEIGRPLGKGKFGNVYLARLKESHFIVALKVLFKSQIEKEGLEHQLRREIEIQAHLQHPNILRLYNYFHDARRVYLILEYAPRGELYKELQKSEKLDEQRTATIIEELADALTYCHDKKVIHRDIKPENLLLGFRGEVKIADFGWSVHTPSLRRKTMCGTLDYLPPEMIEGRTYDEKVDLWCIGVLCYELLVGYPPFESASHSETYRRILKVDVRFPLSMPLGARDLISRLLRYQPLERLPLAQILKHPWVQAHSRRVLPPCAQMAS
Protocol: To determine Aurora A and C activity of representative compounds of the invention, Active Aurora A or C enzyme was incubated in wells of a 384 well plate with biotinylated STK substrate-2 (Upstate), 1 mM ATP, and various concentrations of inhibitors in a Hepes buffer, pH 7.4 containing MgCl2, sodium othrovanadate, and Triton X-100. After 1 hour, the reaction was stopped with EDTA and anti-phospho-STK antibody Europium Cryptate (Upstate) and SA-XL665 (Upstate) were added to detect the phosphopeptide. The amount of phosphorylation was determined by the time-resolved fluorescence ratio of signals at 665 nm and 615 nm. The IC50s were calculated by an exponential fit of the inhibition values with the inhibitor concentrations using Assay Explorer software.

KDR = KDR (Homo sapiens (Human), UniProt P35968); assay: HTRF in vitro kinase assay, KDR; format: biochemical; settings: VEGFR family; 1 mM ATP
Chain of KDR (P35968 789-1354): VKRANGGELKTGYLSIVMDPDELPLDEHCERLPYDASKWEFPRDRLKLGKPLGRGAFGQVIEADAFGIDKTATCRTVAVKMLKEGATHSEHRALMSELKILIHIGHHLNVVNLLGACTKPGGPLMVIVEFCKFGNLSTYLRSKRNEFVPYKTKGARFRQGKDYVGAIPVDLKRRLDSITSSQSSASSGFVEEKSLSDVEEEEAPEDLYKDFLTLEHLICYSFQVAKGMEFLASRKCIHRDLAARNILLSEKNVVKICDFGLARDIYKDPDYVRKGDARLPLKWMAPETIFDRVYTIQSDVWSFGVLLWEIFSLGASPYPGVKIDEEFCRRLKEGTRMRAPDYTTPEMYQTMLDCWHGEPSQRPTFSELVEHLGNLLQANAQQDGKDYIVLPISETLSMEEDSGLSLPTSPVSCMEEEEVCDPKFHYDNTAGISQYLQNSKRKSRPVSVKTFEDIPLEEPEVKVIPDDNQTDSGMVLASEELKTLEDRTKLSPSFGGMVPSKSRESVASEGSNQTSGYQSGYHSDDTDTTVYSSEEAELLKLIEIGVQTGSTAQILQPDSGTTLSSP
Protocol: as §1, §2

CYP 3A4 = CYP 3A4 (Homo sapiens (Human), UniProt P08684); assay: CYP 3A4 Assay (pooled human liver microsomes, midazolam)
Chain of CYP 3A4 (P08684 whole entry): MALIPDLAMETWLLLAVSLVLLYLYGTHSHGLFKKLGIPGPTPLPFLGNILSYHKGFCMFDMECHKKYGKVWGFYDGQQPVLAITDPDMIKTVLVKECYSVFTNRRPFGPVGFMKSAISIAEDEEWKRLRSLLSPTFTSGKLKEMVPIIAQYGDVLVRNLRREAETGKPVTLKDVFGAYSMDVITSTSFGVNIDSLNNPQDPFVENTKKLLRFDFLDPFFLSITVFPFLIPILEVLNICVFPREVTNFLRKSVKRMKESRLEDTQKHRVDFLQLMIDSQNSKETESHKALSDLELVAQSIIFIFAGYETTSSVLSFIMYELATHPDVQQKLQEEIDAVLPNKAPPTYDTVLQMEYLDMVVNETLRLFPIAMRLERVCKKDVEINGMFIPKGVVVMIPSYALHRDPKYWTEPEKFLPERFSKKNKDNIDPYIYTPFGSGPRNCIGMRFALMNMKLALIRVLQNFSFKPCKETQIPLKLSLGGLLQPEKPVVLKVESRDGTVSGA
Protocol: Assays (200 μL final volume) were carried out in NUNC polypropylene deep well plates in 50 mM potassium phosphate buffer, pH 7.4, using a microtiter plate shaker in a 37° C. incubator. […] A constant amount of dimethylsulfoxide (1%) was added to the incubations with the test compounds, and each analysis was performed in duplicate. For preincubation experiments (Pre), the microsomes, test compounds, and NADPH were mixed and incubated 30 minutes before addition of midazolam. For coincubation experiments (Co), the compounds, microsomes, and midazolam were mixed and the reaction initiated by addition of NADPH to the wells. In both protocols, the complete reaction was terminated after 10 minutes of shaking by addition of 100 μL of a 1/1 mixture of acetonitrile and methanol containing 0.33 μM 1-hydroxytriazolam.
For analysis, an aliquot of each well were transferred to an autosampler vial and 10 μL injected onto a Shimadzu LC-10A HPLC system equipped with a YMC-AQ (2.0×50 mm) column. The components were separated using a gradient of 10% acetonitrile −0.1% acetic acid to 70% acetonitrile −0.1% acetic acid at a flow rate of at 0.4 mL/minute over 5 minutes.

Chain of cKIT (P10721 544-976): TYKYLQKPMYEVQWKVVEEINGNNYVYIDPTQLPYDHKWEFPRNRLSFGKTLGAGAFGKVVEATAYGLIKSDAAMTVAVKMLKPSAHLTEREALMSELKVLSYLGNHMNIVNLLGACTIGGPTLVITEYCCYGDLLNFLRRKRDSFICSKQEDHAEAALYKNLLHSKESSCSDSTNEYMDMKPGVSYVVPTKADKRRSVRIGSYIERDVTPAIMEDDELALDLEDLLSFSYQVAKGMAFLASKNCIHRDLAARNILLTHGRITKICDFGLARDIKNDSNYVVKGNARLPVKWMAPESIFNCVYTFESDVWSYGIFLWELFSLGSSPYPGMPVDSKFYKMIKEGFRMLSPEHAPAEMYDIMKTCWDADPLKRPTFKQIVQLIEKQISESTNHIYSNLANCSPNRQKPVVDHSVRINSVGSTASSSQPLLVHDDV

Compound | IC50 (cKIT) | IC50 (Aurora B) | also measured
Nc1ncc(-c2cnn(CCO)c2)c2scc(-c3ccc(NC(=O)Nc4ccc(OC(F)F)cc4)cc3)c12 [Example 2, N-(4-{4-amino-7-[1-(2-hydroxyethyl)-1H-pyrazol-4-yl]thieno[3,2-c]pyridin-3-yl}phenyl)-N′-[4-(difluoromethoxy)phenyl]urea] | 27.3 nM | 7.87 nM | –
Nc1ncc(-c2cnn(CCO)c2)c2scc(-c3ccc(NC(=O)Nc4cccc(F)c4)cc3)c12 [Example 1, N-(4-{4-amino-7-[1-(2-hydroxyethyl)-1H-pyrazol-4-yl]thieno[3,2-c]pyridin-3-yl}phenyl)-N′-(3-fluorophenyl)urea] | – | – | IC50 (Aurora C): 1 nM
Cc1cccc(NC(=O)Nc2ccc(-c3csc4c(-c5cn[nH]c5)cnc(N)c34)cc2)c1 [Example 6, N-{4-[4-amino-7-(1H-pyrazol-4-yl)thieno[3,2-c]pyridin-3-yl]phenyl}-N′-(3-methylphenyl)urea, reference compound] | – | 8.44 nM | –
COc1ccc(NC(=O)Nc2ccc(-c3csc4c(-c5cnn(CC(C)(C)O)c5)cnc(N)c34)cc2)cc1 [Example 4, N-(4-{4-amino-7-[1-(2-hydroxy-2-methylpropyl)-1H-pyrazol-4-yl]thieno[3,2-c]pyridin-3-yl}phenyl)-N′-(4-methoxyphenyl)urea] | – | 14.8 nM | IC50 (KDR): 5.01 nM; IC50 (CYP 3A4; read-out: CYP 3A4 IC50, coincubation (Co), Co: reaction initiated by addition of NADPH, 2 μM midazolam): > 10000 nM; IC50 (CYP 3A4; read-out: CYP 3A4 IC50, preincubation (Pre), Pre: microsomes, compound, NADPH incubated 30 minutes before midazolam): > 10000 nM
COc1ccc(NC(=O)Nc2ccc(-c3csc4c(-c5cnn(C[C@H](O)CO)c5)cnc(N)c34)cc2)cc1 [Example 5, N-[4-(4-amino-7-{1-[(2S)-2,3-dihydroxypropyl]-1H-pyrazol-4-yl}thieno[3,2-c]pyridin-3-yl)phenyl]-N′-(4-methoxyphenyl)urea] | 12.6 nM | – | –
Cc1cccc(NC(=O)Nc2ccc(-c3csc4c(-c5cnn(C[C@H](C)O)c5)cnc(N)c34)cc2)c1 [Example 3, N-[4-(4-amino-7-{1-[(2S)-2-hydroxypropyl]-1H-pyrazol-4-yl}thieno[3,2-c]pyridin-3-yl)phenyl]-N′-(3-methylphenyl)urea] | – | 11.2 nM | –
